Assay results published in patent US20220089636A1, “TETRAZOLONE SUBSTITUTED STEROIDS AND USE THEREOF” (Beijing Xuanyi PharmaSciences Co., Ltd., priority 2019, published 2022).
Like-named read-outs stand apart in the source and are kept apart here.

What was measured:
[1] = target: T1, α1β2γ2 GABAA receptor (Homo sapiens, UniProt P14867+P47870); assay: Patch clamp electrophysiology assay of recombinant α1β2γ2 GABAA receptors (potentiation of 2 μM GABA-evoked Cl- current); format: cell-based; conditions: HEK293T cells stably transfected with α1β2γ2 GABAA; for EC50: whole cell, 2 μM GABA, -80 mV; for Emax: HEK-293T, potentiation of 2 μM GABA current
T1 construct: expressed in transfected cells
Method: Cellular electrophysiology is used to measure the pharmacological properties of GABAA receptor modulators in heterologous cell systems. Each compound is tested for its ability to affect GABA mediated currents at a submaximal agonist dose (GABA EC20=2 μM). HEK293T cells are stably transfected with the α1β2γ2 subunits of the GABAA receptor. Flasks or dishes of HEK293 GABAA cells were maintained in the medium (DMEM, 11% (v/v) heat inactivated FBS, 100 or 200 μg/ml G418, 40 μg/ml Hygromycin B, 80 μg/ml Zeocin) and incubated at 37° C. in a humidified incubator with 5% CO2. 12 to 24 hours prior to electrophysiological recordings, the cells were plated on glass cover slips placed in culture dishes and maintained under the same incubation and media conditions. The number of cells being plated on the cover slip should reach a confluence rate at which majority of the cells are single.
For the electrophysiological recordings in the study the following external and internal solutions were used (Table 1):
HEKA EPC 10 USB patch clamp amplifier (from HEKA Elektronik, Germany) was used in the whole cell recording. A cover slip with plenty of single HEK293T-GABAA cells on the surface was removed and placed into a continuously perfused (approximately 1-2 ml/minute) recording chamber mounted on an inverted microscope. GABAA Cl^− current was recorded from single cell using standard whole cell recording techniques. 2 μM GABA was used to evoke GABAA Cl^− current (2 μM of GABA was the EC10-EC20 value of agonist GABA obtained internally on the stable GABAA cells used in this study). After achieving break-in (whole-cell) configuration, the cell was voltage clamped at a holding potential of −80 mV. Only stable cells meeting the recording parameters (membrane resistance Rm>500 MΩ, access resistance (Ra)<15 MΩ, leak current<100 pA in 90% of the recording time) were used. 2 μM GABA was applied to the cell to induce stable Cl^− current first as control for about 2 seconds, test compounds (i.e., compounds of formula (AI), (I), (AII), and (II), or any subgenera thereof) were followed to be applied to the cells for 3 min, then 2 μM GABA was applied to observe the potentiation effect on the GABAA Cl^− current. Different doses of test compound from low to high were applied to the same cell when the cell was stable. A cell was considered stable when current size evoked by 2 μM GABA applied to the cell from time to time was similar. To minimize the possible desensitation of GABAA Cl^− current, duration between applications of test articles was set to 180 seconds.
Test compounds were dissolved in DMSO to form stock solutions (10 mM). Test compounds were diluted to 0.003, 0.01, 0.03, 0.1, 0.3, 1, 3 and 10 μM in bath solution. AU concentrations of test articles were tested on each cell. Data were analyzed using software provided by HEKA, Microsoft Excel and Graphpad Prism (Table 2).

[2] = Mouse PK study (i.v. and p.o.); format: in vivo; conditions: plasma, male CD1 mice; for half-life: read-out: T1/2 (hr) i.v. (converted); for Vd: read-out: Vss; for bioavailability: 5 mg/kg p.o. vs 1 mg/kg i.v.
Method: Test compounds were dosed to male CD1 mice at 5 mg/kg by oral gavage (p.o.) or 1 mg/kg by intravenous injection (i.v.). Blood samples were taken at 0.083, 0.25, 0.5, 1.0, 3.0, 6.0 and 24 hours post i.v. dosing and at 0.25, 0.5, 1.0, 3.0, 6.0 and 24 hours post p.o. dosing. The plasma concentration of compounds were determined by HPLC.

[3] = iv, 1 mg/kg i.v., read-out: AUClast (hr*ng/mL) i.v.
[4] = po, 5 mg/kg p.o., read-out: AUClast (hr*ng/mL) p.o.

T1 sequence (P14867 28-456): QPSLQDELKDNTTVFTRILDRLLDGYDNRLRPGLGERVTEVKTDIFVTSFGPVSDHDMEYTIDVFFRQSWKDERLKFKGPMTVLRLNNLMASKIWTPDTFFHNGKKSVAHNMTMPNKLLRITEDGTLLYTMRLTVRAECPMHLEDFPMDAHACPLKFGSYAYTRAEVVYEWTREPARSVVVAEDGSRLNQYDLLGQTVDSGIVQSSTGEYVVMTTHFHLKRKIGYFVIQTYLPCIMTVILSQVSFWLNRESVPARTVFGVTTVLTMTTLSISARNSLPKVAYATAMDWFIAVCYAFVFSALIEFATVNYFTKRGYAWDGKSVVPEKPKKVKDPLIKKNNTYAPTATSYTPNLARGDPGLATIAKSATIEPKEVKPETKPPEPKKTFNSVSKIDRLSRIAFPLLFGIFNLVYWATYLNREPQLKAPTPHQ
T1 sequence (P47870 25-512 limits assumed): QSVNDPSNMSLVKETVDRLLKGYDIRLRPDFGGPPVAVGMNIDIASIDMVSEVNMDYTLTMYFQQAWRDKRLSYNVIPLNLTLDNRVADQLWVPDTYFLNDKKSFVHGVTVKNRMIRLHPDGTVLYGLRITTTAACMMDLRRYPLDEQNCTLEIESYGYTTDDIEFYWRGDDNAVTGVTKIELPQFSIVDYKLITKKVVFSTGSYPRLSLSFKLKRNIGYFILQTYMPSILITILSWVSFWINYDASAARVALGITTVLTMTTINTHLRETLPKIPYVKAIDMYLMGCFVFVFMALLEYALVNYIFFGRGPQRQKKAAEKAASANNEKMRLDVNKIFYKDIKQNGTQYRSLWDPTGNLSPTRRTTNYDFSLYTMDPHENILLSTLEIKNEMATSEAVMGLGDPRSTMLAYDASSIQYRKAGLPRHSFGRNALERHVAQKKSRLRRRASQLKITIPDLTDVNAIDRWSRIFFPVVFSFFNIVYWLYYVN
T1 sequence (P18507 40-475 partner): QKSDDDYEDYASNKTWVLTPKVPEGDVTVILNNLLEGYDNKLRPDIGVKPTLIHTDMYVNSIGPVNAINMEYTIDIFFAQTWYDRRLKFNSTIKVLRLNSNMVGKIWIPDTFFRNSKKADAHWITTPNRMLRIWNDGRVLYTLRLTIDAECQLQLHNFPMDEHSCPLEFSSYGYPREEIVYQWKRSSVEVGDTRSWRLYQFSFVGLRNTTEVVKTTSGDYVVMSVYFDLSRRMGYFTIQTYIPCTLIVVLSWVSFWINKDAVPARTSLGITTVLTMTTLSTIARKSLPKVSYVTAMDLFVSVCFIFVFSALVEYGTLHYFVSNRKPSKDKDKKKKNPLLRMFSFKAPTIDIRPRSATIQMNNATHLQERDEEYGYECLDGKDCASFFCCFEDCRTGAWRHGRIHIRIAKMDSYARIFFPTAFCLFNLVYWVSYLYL

| Structure (SMILES) | EC50 [1] | clearance ([2]; iv, 1 mg/kg i.v.) | AUC(0-t) [2, 3] | half-life ([2]; iv, 1 mg/kg i.v.) | Vd ([2]; iv, 1 mg/kg i.v.) | Cmax ([2]; po, 5 mg/kg p.o.) | Tmax ([2]; po, 5 mg/kg p.o.) | bioavailability ([2]; po) | AUC(0-t) [2, 4] | Emax [1] |
| --- | --- | --- | --- | --- | --- | --- | --- | --- | --- | --- |
| C[C@@]1(O)CC[C@H]2[C@H](CC[C@@H]3[C@@H]2CC[C@]2(C)[C@@H](C(=O)Cn4nnn(CC#N)c4=O)CC[C@@H]32)C1 [Example 20, 2-(4-(2-((3R,5R,8R,9R,10S,13S,14S,17S)-3-hydroxy-3,13-dimethylhexadecahydro-1H-cyclopenta[a]phenanthren-17-yl)-2-oxoethyl)-5-oxo-4,5-dihydro-1H-tetrazol-1-yl)acetonitrile] | 0.56 µM |  |  |  |  |  |  |  |  |  |
| C[C@@]1(O)CC[C@H]2[C@H](CC[C@@H]3[C@@H]2CC[C@]2(C)[C@@H](C(=O)Cn4nnn(C(F)(F)F)c4=O)CC[C@@H]32)C1 [Example 22, 1-(2-((3R,5R,8R,9R,10S,13S,14S,17S)-3-hydroxy-3,13-dimethylhexadecahydro-1H-cyclopenta[a]phenanthren-17-yl)-2-oxoethyl)-4-(trifluoromethyl)-1,4-dihydro-5H-tetrazol-5-one] | 0.014 µM | 7.77 L/h/kg | 118 ng·h/mL | 0.3 h | 2.59 L/kg | 0.213 µg/mL | 30 min | 34.2% | 203 ng·h/mL |  |
| C[C@@]1(O)CC[C@H]2[C@H](CC[C@@H]3[C@@H]2CC[C@]2(C)[C@@H](C(=O)Cn4nnn(-c5cccnc5)c4=O)CC[C@@H]32)C1 [Example 18, 1-(2-((3R,5R,8R,9R,10S,13S,14S,17S)-3-hydroxy-3,13-dimethylhexadecahydro-1H-cyclopenta[a]phenanthren-17-yl)-2-oxoethyl)-4-(pyridin-3-yl)-1,4-dihydro-5H-tetrazol-5-one] | 0.039 µM | 3.39 L/h/kg | 270 ng·h/mL | 0.29 h | 1.33 L/kg | 0.297 µg/mL | 60 min | 50.1% | 692 ng·h/mL | 757% |
| C[C@@]1(O)CC[C@H]2[C@H](CC[C@@H]3[C@@H]2CC[C@]2(C)[C@@H](C(=O)Cn4nn[nH]c4=O)CC[C@@H]32)C1 [Example 19, 1-(2-((3R,5R,8R,9R,10S,13S,14S,17S)-3-hydroxy-3,13-dimethylhexadecahydro-1H-cyclopenta[a]phenanthren-17-yl)-2-oxoethyl)-1,4-dihydro-5H-tetrazol-5-one] | 24 µM |  |  |  |  |  |  |  |  |  |
| CC(C)(C)n1nnn(CC(=O)[C@H]2CC[C@H]3[C@@H]4CC[C@@H]5C[C@](C)(O)CC[C@@H]5[C@H]4CC[C@]23C)c1=O [Example 5, 1-(tert-butyl)-4-(2-((3R,5R,8R,9R,10S,13S,14S,17S)-3-hydroxy-3,13-dimethylhexadecahydro-1H-cyclopenta[a]phenanthren-17-yl)-2-oxoethyl)-1,4-dihydro-5H-tetrazol-5-one] | 0.15 µM | 1.47 L/h/kg | 634 ng·h/mL | 7.83 h | 8.3 L/kg | 0.276 µg/mL | 30 min | 20.5% | 633 ng·h/mL |  |
| C[C@@]1(O)CC[C@H]2[C@H](CC[C@@H]3[C@@H]2CC[C@]2(C)[C@@H](C(=O)Cn4nnn(-c5cnco5)c4=O)CC[C@@H]32)C1 [Example 23, 1-(2-((3R,5R,8R,9R,10S,13S,14S,17S)-3-hydroxy-3,13-dimethylhexadecahydro-1H-cyclopenta[a]phenanthren-17-yl)-2-oxoethyl)-4-(oxazol-5-yl)-1,4-dihydro-5H-tetrazol-5-one] | 0.096 µM |  |  |  |  |  |  |  |  |  |
| COc1cccc(-n2nnn(CC(=O)[C@H]3CC[C@H]4[C@@H]5CC[C@@H]6C[C@](C)(O)CC[C@@H]6[C@H]5CC[C@]34C)c2=O)c1 [Example 16, 1-(2-((3R,5R,8R,9R,10S,13S,14S,17S)-3-hydroxy-3,13-dimethylhexadecahydro-1H-cyclopenta[a]phenanthren-17-yl)-2-oxoethyl)-4-(3-methoxyphenyl)-1,4-dihydro-5H-tetrazol-5-one] | 0.0054 µM | 1.98 L/h/kg | 500 ng·h/mL | 0.9 h | 1.54 L/kg | 0.109 µg/mL | 30 min | 15.1% | 330 ng·h/mL | 578% |
| C[C@@]1(O)CC[C@H]2[C@H](CC[C@@H]3[C@@H]2CC[C@]2(C)[C@@H](C(=O)Cn4nnn(C5CCCC5)c4=O)CC[C@@H]32)C1 [Example 8, 1-cyclopentyl-4-(2-((3R,5R,8R,9R,10S,13S,14S,17S)-3-hydroxy-3,13-dimethylhexadecahydro-1H-cyclopenta[a]phenanthren-17-yl)-2-oxoethyl)-1,4-dihydro-5H-tetrazol-5-one] | 0.095 µM | 8.41 L/h/kg | 117 ng·h/mL | 0.73 h | 2.38 L/kg | 0.022 µg/mL | 39.6 min | 4.48% | 26 ng·h/mL |  |
| C[C@@]1(O)CC[C@H]2[C@H](CC[C@@H]3[C@@H]2CC[C@]2(C)[C@@H](C(=O)Cn4nnn(CCC#N)c4=O)CC[C@@H]32)C1 [Example 21, 3-(4-(2-((3R,5R,8R,9R,10S,13S,14S,17S)-3-hydroxy-3,13-dimethylhexadecahydro-1H-cyclopenta[a]phenanthren-17-yl)-2-oxoethyl)-5-oxo-4,5-dihydro-1H-tetrazol-1-yl)propanenitrile] | 0.29 µM |  |  |  |  |  |  |  |  |  |
| CCn1nnn(CC(=O)[C@H]2CC[C@H]3[C@@H]4CC[C@@H]5C[C@](C)(O)CC[C@@H]5[C@H]4CC[C@]23C)c1=O [Example 3, 1-ethyl-4-(2-((3R,5R,8R,9R,10S,13S,14S,17S)-3-hydroxy-3,13-dimethylhexadecahydro-1H-cyclopenta[a]phenanthren-17-yl)-2-oxoethyl)-1,4-dihydro-5H-tetrazol-5-one] | 0.094 µM | 1.46 L/h/kg | 673 ng·h/mL | 0.57 h | 0.93 L/kg | 0.973 µg/mL | 30 min | 40.5% | 1330 ng·h/mL |  |
| Cn1cc(-n2nnn(CC(=O)[C@H]3CC[C@H]4[C@@H]5CC[C@@H]6C[C@](C)(O)CC[C@@H]6[C@H]5CC[C@]34C)c2=O)cn1 [Example 29, 1-(2-((3R,5R,8R,9R,10S,13S,14S,17S)-3-hydroxy-3,13-dimethylhexadecahydro-1H-cyclopenta[a]phenanthren-17-yl)-2-oxoethyl)-4-(1-methyl-1H-pyrazol-4-yl)-1,4-dihydro-5H-tetrazol-5-one] | 0.28 µM |  |  |  |  |  |  |  |  |  |
| C[C@@]1(O)CC[C@H]2[C@H](CC[C@@H]3[C@@H]2CC[C@]2(C)[C@@H](C(=O)Cn4nnn(C5CC5)c4=O)CC[C@@H]32)C1 [Example 6, 1-cyclopropyl-4-(2-((3R,5R,8R,9R,10S,13S,14S,17S)-3-hydroxy-3,13-dimethylhexadecahydro-1H-cyclopenta[a]phenanthren-17-yl)-2-oxoethyl)-1,4-dihydro-5H-tetrazol-5-one] | 0.66 µM |  |  |  |  |  |  |  |  |  |
| C[C@@]1(O)CC[C@H]2[C@H](CC[C@@H]3[C@@H]2CC[C@]2(C)[C@@H](C(=O)Cn4nnn(C5CCCCC5)c4=O)CC[C@@H]32)C1 [Example 9, 1-cyclohexyl-4-(2-((3R,5R,8R,9R,10S,13S,14S,17S)-3-hydroxy-3,13-dimethylhexadecahydro-1H-cyclopenta[a]phenanthren-17-yl)-2-oxoethyl)-1,4-dihydro-5H-tetrazol-5-one] | 1.38 µM |  |  |  |  |  |  |  |  |  |
